Assay results from paper PMC7997032, “Organic synthesis and anti-influenza A virus activity of cyclobakuchiols A, B, C, and D” (PLoS ONE, 2021).
“And” between values parts separate entries of the source, which are not always exact repeats. Identical values can stand only once.

How the values were obtained:
A/WSN/33 virus [1] = test: Influenza A viral growth assay (viral titer of culture media); format: cell-based, influenza A H1N1 virus; conditions: A/WSN/33 (WSN), 12.5uM, average of #1-3 exp (n=9)
A/PR/8/34 virus [2] = test: Immunofluorescence staining of viral NP in influenza A virus-infected MDCK cells; conditions: for NP/DAPI (%) ave: average of 9 wells
Procedure: (§1) MDCK cells were seeded on a 96-well plate at 1 × 10^4 cells/well. […] Each mixture was added to the cells at 37°C in the presence of 5% CO2. […] After influenza A viral infection for 24 h, the cells were fixed with 4% paraformaldehyde in phosphate-buffered saline (PBS) for 30 min at 4°C and subsequently permeabilized by the addition of 0.3% Triton X-100 for 20 min at 25°C. A mouse primary antibody was used to detect the NP of A/PR/8/34 or A/WSN/33 viruses (FluA-NP 4F1; SouthernBiotech, AL, USA). Alexa Fluor488-conjugated goat anti-mouse IgG (H + L) antibody (Thermo Fisher Scientific) was used as the secondary antibody. Cell nuclei were then stained using diamidino-2-phenylindole (DAPI) (Thermo Fisher Scientific). Wells were photographed using a fluorescence microscope (BIOREVO BZ-X700; Keyence, Osaka, Japan). The proportion of influenza A NP-positive cells per DAPI-positive cells was calculated based on measurements recorded using BZ-X Analyzer software (Keyence).

[3] = system: canine interferon-β (Ifn-β); test: RT-qPCR of Ifn-β mRNA in MDCK cells with or without A/PR/8/34 virus; format: cell-based; conditions: 12.5uM, relative to virus - DMSO; for MDCK IFN-b mRNA, ave: ave of #1-3 exp; for MDCK IFN-b mRNA, individual replicates: replicates 1-3 of #1, #2, #3 exp, listed as Cyclobakuchiol A
Nrf2 = Nrf2 reporter assay (dual luciferase system) in MDCK cells; format: cell-based, canine
Procedure: An Nrf2 reporter assay based on the dual luciferase system was performed as previously described. The plasmid pNQO1-ARE (antioxidant response element)-Fluc, provided by Yamamoto M., expressed a Firefly luciferase gene driven by Nrf2 activation, while the plasmid pRL-TK-Rluc vector (Promega, CA, USA) expressed a Renilla luciferase gene driven by the herpes simplex viral thymidine kinase promoter as an internal control. MDCK cells were seeded in a 24-well plate at 1 × 10^5 cells/well and transfected with pNQO1-ARE-luc (0.25 μg) and pRL-TK-Rluc (0.25 μg). At 24 h post-transfection, the cells were treated with 12.5 μM cyclobakuchiols A–D in the infection medium at 37°C under 5% CO2. DMSO (0.125%) and 12.5 μM 1 were used as negative and positive controls, respectively. Total RNA was extracted from the MDCK cell lysates after 24 h of incubation. The levels of Firefly and Renilla luciferase mRNAs were analyzed by RT-qPCR and normalized to that of β-actin mRNA.

A/WSN/33 virus [4] = test: Immunofluorescence staining of viral NP in influenza A virus-infected MDCK cells; conditions: WSN
Procedure: as §1

A/PR/8/34 virus [5] = test: RT-qPCR of viral mRNAs (NP, NS1, PA, PB1, PB2, M2) in infected MDCK cells; format: cell-based, influenza A H1N1 virus
A/PR/8/34 virus [6] = format: cell-based; conditions: 12.5 μM
[7] = system: NAD(P)H quinone oxidoreductase 1 (Nqo1); test: RT-qPCR of Nqo1 mRNA in MDCK cells with or without A/PR/8/34 virus; format: cell-based, canine; conditions: for NQO1 Canis lupus mRNA, ave / NQO1 Canis lupus mRNA, individual replicates: 12.5uM, MDCK, relative to virus - DMSO; for NQO1 Canis lupus mRNA, ave: ave of #1-3 exp; for NQO1 Canis lupus mRNA, individual replicates: replicates 1-3 of #1, #2, #3 exp, listed as Cyclobakuchiol A
A/PR/8/34 virus [8] = test: Influenza A viral growth assay (viral titer of culture media); format: cell-based, influenza A H1N1 virus; set-up: viral titer of culture media, individual replicate / viral titer of culture media, ave: unit not given here; conditions: A/PR/8/34 (PR8), 12.5uM, average of #1-3 exp (n=9)
[9] = MDCK cells, PR8 virus, relative to DMSO (about 1), ave of #1-3 exp (9 values)
[10] = MDCK cells, PR8 virus, relative to DMSO, replicates 1-3 of #1, #2, #3 exp, listed as Cyclobakuchiol A
[11] = 24h WB, average of 3 experiments
[12] = 24h WB, single experiment, listed as cyclo A

Compound: C=C[C@]1(C)CCC(C(=C)C)C(c2ccc(O)cc2)C1 (stereo in doubt) [cyclobakuchiol A]
- viral titer of culture media, ave (A/WSN/33 virus [1]; 12h): 10300
- viral titer of culture media, ave (A/WSN/33 virus [1]; 24h): 22944444
- viral titer of culture media, ave (A/WSN/33 virus [1]; 48h): 177111111
- viral titer of culture media, ave (A/WSN/33 virus [1]; 72h): 106555556
- percentage of influenza A NP-positive cells relative to DMSO (A/PR/8/34 virus [2]; A/PR/8/34, 3.1 μM, 24 h, Fig 4B): significantly reduced
- NP/DAPI (%) ave (A/PR/8/34 virus [2]; A/PR/8/34, 3.13 uM): 4.608%
- NP/DAPI (%) ave (A/PR/8/34 virus [2]; A/PR/8/34, 6.25 uM): 1.65%
- NP/DAPI (%) ave (A/PR/8/34 virus [2]; A/PR/8/34, 12.5 uM): 1.121%
- NP (NP-positive cell count) (A/PR/8/34 virus [2]; A/PR/8/34, 12.5 uM, single well, listed as Cyclobaku. A): 4 and 2 and 3
- NP/DAPI (%) ave (A/PR/8/34 virus [2]; A/PR/8/34, 25 uM): 0.8303%
- NP/DAPI (%) (A/PR/8/34 virus [2]; A/PR/8/34, 25 uM, single well, listed as Cyclobaku. A): 2.804% and 0.7843% and 0.5666% and 0.5181% and 1.085% and 0.489% and 0.3145% and 0.3937%
- IC50 (A/PR/8/34 virus [2]; Influenza A virus, PR/8, MDCK, read-out: half maximal (50%) inhibitory concentration (IC50)): 1700 ± 800 nM
- MDCK IFN-b mRNA, ave ([3]; virus +): 3.338
- MDCK IFN-b mRNA, individual replicates ([3]; virus +): 0.977 and 7.49 and 3.1238 and 7.575 and 1.945 and 2.0516 and 3.014 and 1.296 and 2.57
- MDCK IFN-b mRNA, ave ([3]; virus -): 4.43
- MDCK IFN-b mRNA, individual replicates ([3]; virus -): 0.3432 and 9.774 and 14.2997 and 12.0611 and 0.902 and 0.6358 and 0.8443 and 0.4235 and 0.5869
- Nrf2 activation (reporter assay) in contrast to DMSO (Nrf2; 12.5 μM, 24 h, MDCK cells): induced
- pNQO1-ARE-Luc NRF2 reporter assay, ave (Nrf2; 12.5uM, relative to DMSO trans+, ave of #1-3 exp): 1.46
- pNQO1-ARE-Luc NRF2 reporter assay, individual replicates (Nrf2; 12.5uM, relative to DMSO trans+, two values each of #1, #2, #3 exp, listed as Cyclobakuchiol A): 1.665 and 1.021 and 1.596 and 1.77 and 1.598 and 1.113
- NP/DAPI (%) ave (A/WSN/33 virus [4]; 3.13uM, ave of 9 values (3 exp)): 33.269%
- NP/DAPI (%) ave (A/WSN/33 virus [4]; 6.25uM, ave of 9 values (3 exp)): 28.3611%
- NP/DAPI (%) ave (A/WSN/33 virus [4]; 12.5uM, ave of 9 values (3 exp)): 27.0591%
- NP/DAPI (%) ave (A/WSN/33 virus [4]; 25uM, ave of 9 values (3 exp)): 29.2459%
- NP/DAPI (%) ave (A/WSN/33 virus [4]; ave summary, 3.13%): 33.269%
- NP/DAPI (%) ave (A/WSN/33 virus [4]; ave summary, 6.25%): 28.3611%
- NP/DAPI (%) ave (A/WSN/33 virus [4]; ave summary, 12.50%): 27.0591%
- NP/DAPI (%) ave (A/WSN/33 virus [4]; ave summary, 25%): 29.2459%
- reduction in the level of NP mRNA compared with 4 and 5 (A/PR/8/34 virus [5]; 12.5 μM, 24 h, Fig 6A): significantly stronger
- reduction in the level of PB2 mRNA compared with 5 (A/PR/8/34 virus [5]; 12.5 μM, 24 h, Fig 6E): significantly stronger
- PR8 NP gene expression qPCR, ave (A/PR/8/34 virus [5]; MDCK PR8, NP mRNA, relative (DMSO about 1), average of #1-3 exp (n=9)): 0.01993
- PR8 NP gene expression qPCR, individual replicate (A/PR/8/34 virus [5]; MDCK PR8, NP mRNA, relative (DMSO about 1), replicates of #1-3 exp, listed as Cyclobakuchiol A): 0.004781 and 0.02173 and 0.01679 and 0.02307 and 0.03646 and 0.02695 and 0.03647 and 0.007215 and 0.005883
- PR8 NS1 gene expression qPCR, ave (A/PR/8/34 virus [5]; MDCK PR8, NS1 mRNA, relative (DMSO about 1), average of #1-3 exp (n=9)): 0.01311
- PR8 NS1 gene expression qPCR, individual replicate (A/PR/8/34 virus [5]; MDCK PR8, NS1 mRNA, relative (DMSO about 1), replicates of #1-3 exp, listed as Cyclobakuchiol A): 0.006023 and 0.01703 and 0.01038 and 0.0146 and 0.02282 and 0.01557 and 0.01791 and 0.008546 and 0.005121
- PR8 PA gene expression qPCR, ave (A/PR/8/34 virus [5]; MDCK PR8, PA mRNA, relative (DMSO about 1), average of #1-3 exp (n=9)): 0.01493
- PR8 PA gene expression qPCR, individual replicate (A/PR/8/34 virus [5]; MDCK PR8, PA mRNA, relative (DMSO about 1), replicates of #1-3 exp, listed as Cyclobakuchiol A): 0.007746 and 0.01438 and 0.00964 and 0.01502 and 0.02904 and 0.01721 and 0.0228 and 0.01256 and 0.005972
- PR8 M2 gene expression qPCR, ave (A/PR/8/34 virus [5]; [9]): 0.01356
- PR8 PB1 gene expression qPCR, ave (A/PR/8/34 virus [5]; [9]): 0.01089
- PR8 PB2 gene expression qPCR, ave (A/PR/8/34 virus [5]; [9]): 0.01486
- PR8 M2 gene expression qPCR, individual replicates (A/PR/8/34 virus [5]; [10]): 0.006283 and 0.01574 and 0.01119 and 0.01541 and 0.02852 and 0.01303 and 0.01716 and 0.01044 and 0.004303
- PR8 PB1 gene expression qPCR, individual replicates (A/PR/8/34 virus [5]; [10]): 0.005833 and 0.007225 and 0.006699 and 0.007236 and 0.02285 and 0.01622 and 0.02095 and 0.006264 and 0.00475
- PR8 PB2 gene expression qPCR, individual replicates (A/PR/8/34 virus [5]; [10]): 0.006621 and 0.01468 and 0.01232 and 0.01635 and 0.03014 and 0.01618 and 0.02349 and 0.009706 and 0.004275
- NP/b-actin ave (A/PR/8/34 virus [6]; [11]): 0.4278
- NS1/b-actin ave (A/PR/8/34 virus [6]; [11]): 0.4825
- NP mean (western blot signal intensity, ImageJ) (A/PR/8/34 virus [6]; [12]): 46.861 and 57.758 and 73.552
- NP/b-actin (A/PR/8/34 virus [6]; [12]): 0.5523 and 0.2997 and 0.4315
- NS1/b-actin (A/PR/8/34 virus [6]; [12]): 0.4154 and 0.4658 and 0.5663
- NS1 mean (western blot signal intensity, ImageJ) (A/PR/8/34 virus [6]; [12]): 72.823 and 75.793 and 55.326
- expression level of NP protein compared with the 4 or 5 treatment groups (A/PR/8/34 virus [6]; 24 h post-infection, Fig 7C): significantly reduced
- relative mRNA level of Nqo1 compared with 4- and 5-treated cells [7]: significantly higher
- NQO1 Canis lupus mRNA, ave ([7]; virus + (PR8)): 1.589
- NQO1 Canis lupus mRNA, individual replicates ([7]; virus + (PR8)): 2.006 and 1.48 and 1.365 and 1.506 and 1.318 and 1.456 and 1.551 and 1.721 and 1.896
- NQO1 Canis lupus mRNA, ave ([7]; virus -): 1.2966
- NQO1 Canis lupus mRNA, individual replicates ([7]; virus -): 1.091 and 1.486 and 1.24 and 1.353 and 1.444 and 1.092 and 1.099 and 1.4686 and 1.396
- relative mRNA level of Nqo1 compared with DMSO ([7]; without A/PR/8/34 virus, 12.5 μM, 24 h): significantly upregulated
- viral titer of culture media, ave (A/PR/8/34 virus [8]; 12h): 31111.1
- viral titer of culture media, ave (A/PR/8/34 virus [8]; 48h): 28888.9
- viral titer of culture media, ave (A/PR/8/34 virus [8]; 72h): 20000
